{"source": "patent US9113629B2", "about": "“4-amino-6-(4-substituted-phenyl)-picolinates and 6-amino-2-(4-substituted-phenyl)-pyrimidine-4-carboxylates and their use as herbicides” (DOW AGROSCIENCES LLC, priority 2013, dated 2015)", "key": {"[1]": {"system": "Key Broadleaf Weed and Crop Species", "test": "Post-emergent Test II herbicidal activity (Table 5)", "type": "in vivo", "details": "for Visual Growth Reduction (%) 14 Days After Application, ABUTH: ABUTH: velvetleaf (Abutilon theophrasti); for Visual Growth Reduction (%) 14 Days After Application, AMARE: AMARE: redroot pigweed (Amaranthus retroflexus); for Visual Growth Reduction (%) 14 Days After Application, BRSNN: BRSNN: oilseed-rape, canola (Brassica napus); for Visual Growth Reduction (%) 14 Days After Application, CHEAL: CHEAL: lambsquarters (Chenopodium album); for Visual Growth Reduction (%) 14 Days After Application, EPHHL: EPHHL: wild poinsettia (Euphorbia heterophylla); for Visual Growth Reduction (%) 14 Days After Application, HELAN: HELAN: sunflower (Helianthus annuus); for Visual Growth Reduction (%) 14 Days After Application, VIOTR: VIOTR: wild pansy (Viola tricolor)", "experimental": "(§1) Post-emergent Test II: Seeds or nutlets of the desired test plant species were planted in Sun Gro Metro-Mix® 360 planting mixture, which typically has a pH of 6.0 to 6.8 and an organic matter content of about 30 percent, in plastic pots with a surface area of 64 square centimeters. When required to ensure good germination and healthy plants, a fungicide treatment and/or other chemical or physical treatment was applied. The plants were grown for 7-21 d in a greenhouse with an approximate 15 h photoperiod which was maintained at about 23-29° C. during the day and 22-28° C. during the night. Nutrients and water were added on a regular basis and supplemental lighting was provided with overhead metal halide 1000-Watt lamps as necessary. The plants were employed for testing when they reached the first or second true leaf stage.\n(§2) A weighed amount, determined by the highest rate to be tested, of each test compound was placed in a 25 mL glass vial and was dissolved in 4 mL of a 97:3 v/v mixture of acetone and DMSO to obtain concentrated stock solutions. […] The concentrated stock solutions obtained were diluted with 20 mL of an aqueous mixture containing acetone, water, isopropyl alcohol, DMSO. Atplus 411F crop oil concentrate, and Triton® X-155 surfactant in a 48.5:39:10:1.5:1.0:0.02 v/v ratio to obtain spray solutions containing the highest application rates. Additional application rates were obtained by serial dilution of 12 mL of the high rate solution into a solution containing 2 mL of 97:3 v/v mixture of acetone and DMSO and 10 mL of an aqueous mixture containing acetone, water, isopropyl alcohol, DMSO, Atplus 411F crop oil concentrate, and Triton X-155 surfactant in a 48.5:39:10:1.5:1.0:0.02 v/v ratio to obtain ½×, ¼×, ⅛× and 1/16× rates of the high rate. Compound requirements are based upon a 12 mL application volume at a rate of 187 liters per hectare (L/ha). Formulated compounds were applied to the plant material with an overhead Mandel track sprayer equipped with 8002E nozzles calibrated to deliver 187 L/ha over an application area of 0.503 square meters at a spray height of 18 inches (43 cm) above the average plant canopy height. Control plants were sprayed in the same manner with the solvent blank.\n(§3) The treated plants and control plants were placed in a greenhouse as described above and watered by subirrigation to prevent wash-off of the test compounds. After 14 d, the condition of the test plants as compared with that of the untreated plants was determined visually and scored on a scale of 0 to 100 percent where 0 corresponds to no injury and 100 corresponds to complete kill."}, "[2]": {"system": "Key Grass and Sedge Weeds as well as Grass Crops", "test": "Post-emergent Test II herbicidal activity (Table 6)", "type": "in vivo", "details": "for Visual Growth Reduction (%) 14 Days After Application, CYPES: CYPES: yellow nutsedge (Cyperus esculentus); for Visual Growth Reduction (%) 14 Days After Application, DIGSA: DIGSA: crabgrass (Digitaria sanguinalis); for Visual Growth Reduction (%) 14 Days After Application, ECHCG: ECHCG: barnyardgrass (Echinochloa crus-galli); for Visual Growth Reduction (%) 14 Days After Application, ORYSA: ORYSA: rice (Oryza sativa); for Visual Growth Reduction (%) 14 Days After Application, ORYSA / Visual Growth Reduction (%) 14 Days After Application, TRZSS / Visual Growth Reduction (%) 14 Days After Application, ZEAMX: crop; for Visual Growth Reduction (%) 14 Days After Application, SETFA: SETFA: giant foxtail (Setaria faberi); for Visual Growth Reduction (%) 14 Days After Application, SORVU: SORVU: sorghum (Sorghum vulgare); for Visual Growth Reduction (%) 14 Days After Application, TRZSS: TRZSS (wheat, Triticum aestivum); for Visual Growth Reduction (%) 14 Days After Application, ZEAMX: ZEAMX: maize, corn (Zea mays)", "experimental": "as §1, §2, §3"}}}
{"compound": "COC(=O)c1nc(-c2ccc([N+](=O)[O-])cc2F)c(F)c(N)c1Cl", "note": "[Compound 80]", "values": [{"measurement": "Visual Growth Reduction (%) 14 Days After Application, ABUTH", "setting": "[1]; application rate 70 g ai/ha", "value": "G (0-29)"}, {"measurement": "Visual Growth Reduction (%) 14 Days After Application, ABUTH", "setting": "[1]; application rate 140 g ai/ha", "value": "G (0-29)"}, {"measurement": "Visual Growth Reduction (%) 14 Days After Application, AMARE", "setting": "[1]; application rate 70 g ai/ha", "value": "D (60-74)"}, {"measurement": "Visual Growth Reduction (%) 14 Days After Application, AMARE", "setting": "[1]; application rate 140 g ai/ha", "value": "B (85-94)"}, {"measurement": "Visual Growth Reduction (%) 14 Days After Application, BRSNN", "setting": "[1]; application rate 70 g ai/ha", "value": "G (0-29)"}, {"measurement": "Visual Growth Reduction (%) 14 Days After Application, BRSNN", "setting": "[1]; application rate 140 g ai/ha", "value": "G (0-29)"}, {"measurement": "Visual Growth Reduction (%) 14 Days After Application, CHEAL", "setting": "[1]; application rate 70 g ai/ha", "value": "A (95-100)"}, {"measurement": "Visual Growth Reduction (%) 14 Days After Application, CHEAL", "setting": "[1]; application rate 140 g ai/ha", "value": "A (95-100)"}, {"measurement": "Visual Growth Reduction (%) 14 Days After Application, EPHHL", "setting": "[1]; application rate 70 g ai/ha", "value": "C (75-84)"}, {"measurement": "Visual Growth Reduction (%) 14 Days After Application, EPHHL", "setting": "[1]; application rate 140 g ai/ha", "value": "C (75-84)"}, {"measurement": "Visual Growth Reduction (%) 14 Days After Application, HELAN", "setting": "[1]; application rate 70 g ai/ha", "value": "D (60-74)"}, {"measurement": "Visual Growth Reduction (%) 14 Days After Application, HELAN", "setting": "[1]; application rate 140 g ai/ha", "value": "C (75-84)"}, {"measurement": "Visual Growth Reduction (%) 14 Days After Application, VIOTR", "setting": "[1]; application rate 70 g ai/ha", "value": "G (0-29)"}, {"measurement": "Visual Growth Reduction (%) 14 Days After Application, VIOTR", "setting": "[1]; application rate 140 g ai/ha", "value": "G (0-29)"}, {"measurement": "Visual Growth Reduction (%) 14 Days After Application, CYPES", "setting": "[2]; 70 g ai/ha", "value": "G (0-29)"}, {"measurement": "Visual Growth Reduction (%) 14 Days After Application, CYPES", "setting": "[2]; 140 g ai/ha", "value": "G (0-29)"}, {"measurement": "Visual Growth Reduction (%) 14 Days After Application, DIGSA", "setting": "[2]; 70 g ai/ha", "value": "G (0-29)"}, {"measurement": "Visual Growth Reduction (%) 14 Days After Application, DIGSA", "setting": "[2]; 140 g ai/ha", "value": "G (0-29)"}, {"measurement": "Visual Growth Reduction (%) 14 Days After Application, ECHCG", "setting": "[2]; 70 g ai/ha", "value": "G (0-29)"}, {"measurement": "Visual Growth Reduction (%) 14 Days After Application, ECHCG", "setting": "[2]; 140 g ai/ha", "value": "G (0-29)"}, {"measurement": "Visual Growth Reduction (%) 14 Days After Application, ORYSA", "setting": "[2]; 70 g ai/ha", "value": "G (0-29)"}, {"measurement": "Visual Growth Reduction (%) 14 Days After Application, ORYSA", "setting": "[2]; 140 g ai/ha", "value": "G (0-29)"}, {"measurement": "Visual Growth Reduction (%) 14 Days After Application, SETFA", "setting": "[2]; 70 g ai/ha", "value": "G (0-29)"}, {"measurement": "Visual Growth Reduction (%) 14 Days After Application, SETFA", "setting": "[2]; 140 g ai/ha", "value": "G (0-29)"}, {"measurement": "Visual Growth Reduction (%) 14 Days After Application, SORVU", "setting": "[2]; 70 g ai/ha", "value": "G (0-29)"}, {"measurement": "Visual Growth Reduction (%) 14 Days After Application, SORVU", "setting": "[2]; 140 g ai/ha", "value": "G (0-29)"}, {"measurement": "Visual Growth Reduction (%) 14 Days After Application, TRZSS", "setting": "[2]; 70 g ai/ha", "value": "G (0-29)"}, {"measurement": "Visual Growth Reduction (%) 14 Days After Application, TRZSS", "setting": "[2]; 140 g ai/ha", "value": "G (0-29)"}, {"measurement": "Visual Growth Reduction (%) 14 Days After Application, ZEAMX", "setting": "[2]; 70 g ai/ha", "value": "G (0-29)"}, {"measurement": "Visual Growth Reduction (%) 14 Days After Application, ZEAMX", "setting": "[2]; 140 g ai/ha", "value": "G (0-29)"}]}
